The text below walks through data of patent US7943610B2, “Pyrazolopyridine-1,4-diamines and analogs thereof” (3M Innovative Properties Company, priority 2005, dated 2011).

Each structure is given as a SMILES string.

`CCCn1nc2c(N)nc3ccccc3c2c1N` [Example 1, 2-Propyl-2H-pyrazolo[3,4-c]quinoline-1,4-diamine]: the melting point was 253 °C (dec.).

Take `CCCn1nc2c(N)nc3ccccc3c2c1NCC` [Example 2, N^1-Ethyl-2-propyl-2H-pyrazolo[3,4-c]quinoline-1,4-diamine]: the melting point was in the range of 193 to 194 °C. Next, `CCCn1nc2c(N)nc3ccccc3c2c1NCCC1CCN(C(=O)NC(C)C)CC1` [Example 5, 4-{2-[(4-Amino-2-propyl-2H-pyrazolo[3,4-c]quinolin-1-yl)amino]ethyl}-N-isopropylpiperidine-1-carboxamide]: 168 to 170 °C; `CCCn1nc2c(N)nc3ccccc3c2c1NCCC1CCN(C(C)=O)CC1` [Example 6, N^1-[2-(1-Acetylpiperidin-4-yl)ethyl]-2-propyl-2H-pyrazolo[3,4-c]quinoline-1,4-diamine]: 203 to 206 °C; `CCCn1nc2c(N)nc3ccccc3c2c1NC` [Example 35, N^1-Methyl-2-propyl-2H-pyrazolo[3,4-c]quinoline-1,4-diamine]: 200 to 201 °C. As to `CCCn1nc2c(N)nc3ccccc3c2c1NC(C)C` [Example 36, N^1-Isopropyl-2-propyl-2H-pyrazolo[3,4-c]quinoline-1,4-diamine], the melting point is 199 to 200 °C. The molecule `CCCn1nc2c(N)nc3ccccc3c2c1NCc1ccccc1` [Example 37, N^1-Benzyl-2-propyl-2H-pyrazolo[3,4-c]quinoline-1,4-diamine] showed a melting point of 160 to 161 °C.
